BigSolDB 2.1

O=C(O)c1ccccc1
solubility (mole fraction)
Settings | 283.15 K | 288.15 K | 293.15 K | 298.15 K | 303.15 K | 308.15 K | 313.15 K | 318.15 K | 323.15 K | 328.15 K
in 2-pentanone | 0.163 | 0.18 | 0.196 | 0.215 | 0.234 | 0.256 | 0.279 | 0.315 | 0.349 | 0.388
in diacetone alcohol | 0.234 | 0.251 | 0.269 | 0.287 | 0.306 | 0.315 | 0.336 | 0.367 | 0.396 | 0.426
in isooctane | 0.002 | 0.003 | 0.005 | 0.007 | 0.01 | 0.013 | 0.018 | 0.023 | 0.031 | 0.04
in methyl acetate | 0.125 | 0.152 | 0.175 | 0.198 | 0.213 | 0.237 | 0.26 | 0.282 | 0.318 | 0.348
in n-pentyl acetate | 0.091 | 0.112 | 0.133 | 0.159 | 0.179 | 0.198 | 0.226 | 0.252 | 0.282 | 0.316
in tributyl phosphate | 0.492 | 0.507 | 0.522 | 0.53 | 0.543 | 0.553 | 0.563 | 0.581 | 0.6 | 0.631
